Test results as given in ChEMBL document CHEMBL4800728, “Data for DCP probe JNJ-54119936” (2021).

Legend:
[1] = target: Casein kinase II subunit alpha' (Homo sapiens) (UniProt P19784); assay: CK2alpha2 Invitrogen kinase panel; settings: Compound concentration 10.0 uM
[2] = target: C-C chemokine receptor type 1 (Homo sapiens) (UniProt P32246); assay: CCR1 (h) CEREP screen; settings: Compound concentration 1.0 uM
[3] = target: Interleukin-1 receptor-associated kinase 4 (Homo sapiens) (UniProt Q9NWZ3); assay: IRAK4 Invitrogen kinase panel; settings: Compound concentration 10.0 uM
[4] = target: Beta-1 adrenergic receptor (Homo sapiens) (UniProt P08588); settings: Compound concentration 10.0 uM
[5] = target: Activin receptor type-1B (Homo sapiens) (UniProt P36896); assay: Alk4 Invitrogen kinase panel; settings: Compound concentration 10.0 uM
[6] = target: Estrogen receptor beta (Homo sapiens) (UniProt Q92731); assay: ERbeta Indigo Bioscience nuclear receptor screen
[7] = target: Serine/threonine-protein kinase Chk1 (Homo sapiens) (UniProt O14757); assay: CHK1 Invitrogen kinase panel; settings: Compound concentration 10.0 uM
[8] = target: D(1B) dopamine receptor (Homo sapiens) (UniProt P21918); settings: Compound concentration 10.0 uM
[9] = target: D(2) dopamine receptor (Homo sapiens) (UniProt P14416); assay: D2S (h) CEREP screen; settings: Compound concentration 1.0 uM
[10] = target: T1, Estrogen receptor (Homo sapiens) (UniProt P03372); assay: ERalpha Indigo Bioscience nuclear receptor screen
T1 sequence (whole entry): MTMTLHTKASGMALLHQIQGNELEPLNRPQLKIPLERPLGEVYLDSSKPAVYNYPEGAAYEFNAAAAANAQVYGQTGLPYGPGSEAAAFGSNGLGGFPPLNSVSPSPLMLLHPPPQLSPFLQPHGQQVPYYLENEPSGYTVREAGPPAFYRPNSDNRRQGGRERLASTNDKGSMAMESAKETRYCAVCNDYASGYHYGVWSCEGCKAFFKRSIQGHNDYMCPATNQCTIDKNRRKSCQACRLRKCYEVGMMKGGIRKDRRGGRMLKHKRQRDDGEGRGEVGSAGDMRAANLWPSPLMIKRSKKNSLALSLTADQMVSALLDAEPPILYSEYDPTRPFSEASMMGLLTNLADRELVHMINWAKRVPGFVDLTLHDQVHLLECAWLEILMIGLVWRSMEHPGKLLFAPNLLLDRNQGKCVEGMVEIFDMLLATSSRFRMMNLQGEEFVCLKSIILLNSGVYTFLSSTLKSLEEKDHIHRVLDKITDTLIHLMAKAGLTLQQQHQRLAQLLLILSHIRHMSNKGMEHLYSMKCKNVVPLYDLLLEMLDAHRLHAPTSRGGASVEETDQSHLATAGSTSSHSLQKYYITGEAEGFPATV

[11] = target: Serine/threonine-protein kinase PLK1 (Homo sapiens) (UniProt P53350); assay: Plk1 Invitrogen kinase panel; settings: Compound concentration 10.0 uM
[12] = target: Histamine H3 receptor (Homo sapiens) (UniProt Q9Y5N1); settings: Compound concentration 10.0 uM
[13] = target: Serine/threonine-protein kinase pim-2 (Homo sapiens) (UniProt Q9P1W9); assay: Pim2 Invitrogen kinase panel; settings: Compound concentration 10.0 uM
[14] = target: Casein kinase II subunit alpha (Homo sapiens) (UniProt P68400); assay: CK2alpha1 Invitrogen kinase panel; settings: Compound concentration 10.0 uM
[15] = target: Delta-type opioid receptor (Homo sapiens) (UniProt P41143); assay: Delta2 (h) CEREP screen; settings: Compound concentration 10.0 uM
[16] = target: Adenosine receptor A2a (Homo sapiens) (UniProt P29274); assay: A2a (h) CEREP screen
[17] = target: T2, GABA-A receptor; anion channel (Homo sapiens) (UniProt P14867+P47870+P18507+P28472+P48169+Q99928+Q9UN88+P34903+O00591+O14764+Q8N1C3+P18505+P78334+P47869+P31644+Q16445); assay: GABA (non selective) CEREP screen; assay type: protein-complex assay; settings: Compound concentration 1.0 uM
[18] = target: T3, CAR (nuclear receptor subfamily 1 group I member 3) (Homo sapiens, UniProt Q14994); assay: CAR Indigo Bioscience nuclear receptor screen
T3 sequence (Q14994 whole entry): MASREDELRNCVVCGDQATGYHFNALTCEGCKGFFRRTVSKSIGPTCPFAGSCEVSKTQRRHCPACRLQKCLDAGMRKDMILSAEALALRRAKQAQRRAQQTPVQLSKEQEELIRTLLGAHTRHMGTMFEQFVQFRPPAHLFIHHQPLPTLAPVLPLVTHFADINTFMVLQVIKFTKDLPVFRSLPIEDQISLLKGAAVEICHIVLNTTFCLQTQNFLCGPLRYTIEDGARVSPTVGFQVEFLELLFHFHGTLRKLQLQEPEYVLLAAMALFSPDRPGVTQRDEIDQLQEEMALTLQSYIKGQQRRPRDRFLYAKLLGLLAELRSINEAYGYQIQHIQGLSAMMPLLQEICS

[19] = target: cAMP-dependent protein kinase catalytic subunit alpha (Homo sapiens) (UniProt P17612); assay: PKA Invitrogen kinase panel; settings: Compound concentration 10.0 uM
[20] = target: Calcium/calmodulin-dependent protein kinase type 1D (Homo sapiens) (UniProt Q8IU85); assay: CaMKIdelta Invitrogen kinase panel; settings: Compound concentration 10.0 uM
[21] = target: Aurora kinase A (Homo sapiens) (UniProt O14965); assay: Aurora_A Invitrogen kinase panel; settings: Compound concentration 10.0 uM
[22] = target: Alpha-2A adrenergic receptor (Homo sapiens) (UniProt P08913); settings: Compound concentration 10.0 uM
[23] = target: RAC-alpha serine/threonine-protein kinase (Homo sapiens) (UniProt P31749); assay: PKBalpha Invitrogen kinase panel; settings: Compound concentration 10.0 uM
[24] = target: Sigma intracellular receptor 2 (Homo sapiens, UniProt Q5BJF2); settings: Compound concentration 10.0 uM
[25] = target: Tyrosine-protein kinase JAK3 (Homo sapiens) (UniProt P52333); assay: JAK3 Invitrogen kinase panel; settings: Compound concentration 10.0 uM
[26] = target: Mitogen-activated protein kinase 1 (Homo sapiens) (UniProt P28482); assay: ERK2 Invitrogen kinase panel; settings: Compound concentration 10.0 uM
[27] = target: Cyclin-dependent kinase 5/CDK5 activator 1 (Homo sapiens) (UniProt Q00535+Q15078); assay: CDK5/p35 Invitrogen kinase panel; assay type: protein-complex assay; settings: Compound concentration 10.0 uM
[28] = target: T2, GABA-A receptor; anion channel (Homo sapiens); assay: Cl- channel CEREP screen; assay type: protein-complex assay
[29] = target: C-X-C chemokine receptor type 2 (Homo sapiens) (UniProt P25025); assay: CXCR2 (h) CEREP screen; settings: Compound concentration 1.0 uM

Chain of Estrogen receptor beta (Homo sapiens) (Q92731 whole entry): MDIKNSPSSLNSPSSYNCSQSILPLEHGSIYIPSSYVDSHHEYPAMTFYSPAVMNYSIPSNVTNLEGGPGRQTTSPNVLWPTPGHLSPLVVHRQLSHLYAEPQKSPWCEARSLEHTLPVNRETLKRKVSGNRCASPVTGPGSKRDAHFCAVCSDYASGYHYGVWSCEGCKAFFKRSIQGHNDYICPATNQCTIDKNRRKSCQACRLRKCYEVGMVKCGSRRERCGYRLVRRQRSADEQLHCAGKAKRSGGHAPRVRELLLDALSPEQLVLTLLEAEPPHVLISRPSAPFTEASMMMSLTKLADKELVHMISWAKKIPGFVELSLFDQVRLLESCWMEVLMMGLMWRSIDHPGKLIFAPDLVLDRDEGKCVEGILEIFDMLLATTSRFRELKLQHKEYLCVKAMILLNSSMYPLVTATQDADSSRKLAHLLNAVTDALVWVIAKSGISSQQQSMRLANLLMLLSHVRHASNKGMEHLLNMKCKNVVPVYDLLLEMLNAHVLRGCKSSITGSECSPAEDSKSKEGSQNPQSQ
Chain of Adenosine receptor A2a (Homo sapiens) (P29274 whole entry): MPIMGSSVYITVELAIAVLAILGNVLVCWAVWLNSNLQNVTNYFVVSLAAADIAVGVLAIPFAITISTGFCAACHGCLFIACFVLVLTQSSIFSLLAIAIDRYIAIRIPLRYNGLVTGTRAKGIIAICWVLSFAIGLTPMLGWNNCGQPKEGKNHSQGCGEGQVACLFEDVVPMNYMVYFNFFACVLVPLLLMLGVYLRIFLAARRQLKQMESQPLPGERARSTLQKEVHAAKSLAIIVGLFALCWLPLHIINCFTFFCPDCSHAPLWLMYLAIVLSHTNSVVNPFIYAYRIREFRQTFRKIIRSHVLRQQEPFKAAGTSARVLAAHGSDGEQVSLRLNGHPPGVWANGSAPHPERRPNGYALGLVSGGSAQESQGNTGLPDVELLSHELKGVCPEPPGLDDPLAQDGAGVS
Chain of Calcium/calmodulin-dependent protein kinase type 1D (Homo sapiens) (Q8IU85 whole entry, looked up): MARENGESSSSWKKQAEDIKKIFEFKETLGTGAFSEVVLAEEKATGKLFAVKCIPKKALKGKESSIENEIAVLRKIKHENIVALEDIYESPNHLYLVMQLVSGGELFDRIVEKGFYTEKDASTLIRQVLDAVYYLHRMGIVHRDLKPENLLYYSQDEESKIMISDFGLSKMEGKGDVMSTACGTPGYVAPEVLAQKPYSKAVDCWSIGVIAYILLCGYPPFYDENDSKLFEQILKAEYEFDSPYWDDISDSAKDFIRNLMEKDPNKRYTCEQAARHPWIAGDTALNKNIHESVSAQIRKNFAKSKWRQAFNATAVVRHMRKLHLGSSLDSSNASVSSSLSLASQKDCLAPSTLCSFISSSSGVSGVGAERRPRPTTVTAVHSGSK
Chain of Tyrosine-protein kinase JAK3 (Homo sapiens) (P52333 whole entry): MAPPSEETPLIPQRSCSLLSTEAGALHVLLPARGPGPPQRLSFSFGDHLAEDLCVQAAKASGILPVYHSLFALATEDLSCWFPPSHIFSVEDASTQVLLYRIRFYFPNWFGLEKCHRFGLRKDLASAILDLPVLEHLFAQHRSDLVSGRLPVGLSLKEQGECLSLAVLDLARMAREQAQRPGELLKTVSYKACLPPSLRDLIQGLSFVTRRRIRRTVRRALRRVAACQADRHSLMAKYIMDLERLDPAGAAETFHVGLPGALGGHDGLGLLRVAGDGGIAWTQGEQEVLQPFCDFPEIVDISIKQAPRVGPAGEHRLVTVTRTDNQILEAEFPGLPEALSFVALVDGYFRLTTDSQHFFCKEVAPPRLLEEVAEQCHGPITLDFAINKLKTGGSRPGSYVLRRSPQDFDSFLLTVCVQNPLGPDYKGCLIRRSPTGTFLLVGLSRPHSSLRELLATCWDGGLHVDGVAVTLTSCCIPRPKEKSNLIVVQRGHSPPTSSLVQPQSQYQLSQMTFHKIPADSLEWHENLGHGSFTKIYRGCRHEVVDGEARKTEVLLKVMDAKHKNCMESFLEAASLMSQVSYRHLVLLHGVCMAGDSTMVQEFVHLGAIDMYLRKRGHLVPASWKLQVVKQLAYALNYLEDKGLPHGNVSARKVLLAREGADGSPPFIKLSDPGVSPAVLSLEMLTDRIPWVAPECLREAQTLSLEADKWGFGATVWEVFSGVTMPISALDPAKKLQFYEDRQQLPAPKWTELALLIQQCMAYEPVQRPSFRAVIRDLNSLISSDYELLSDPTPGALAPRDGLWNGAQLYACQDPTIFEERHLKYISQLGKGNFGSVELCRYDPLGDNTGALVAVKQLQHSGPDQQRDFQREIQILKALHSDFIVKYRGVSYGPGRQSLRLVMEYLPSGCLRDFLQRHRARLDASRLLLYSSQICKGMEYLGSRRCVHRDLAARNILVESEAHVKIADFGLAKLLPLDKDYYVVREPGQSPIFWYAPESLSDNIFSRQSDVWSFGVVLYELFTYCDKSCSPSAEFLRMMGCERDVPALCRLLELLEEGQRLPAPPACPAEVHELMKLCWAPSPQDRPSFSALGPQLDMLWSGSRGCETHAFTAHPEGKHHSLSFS
Chain of Interleukin-1 receptor-associated kinase 4 (Homo sapiens) (Q9NWZ3 whole entry): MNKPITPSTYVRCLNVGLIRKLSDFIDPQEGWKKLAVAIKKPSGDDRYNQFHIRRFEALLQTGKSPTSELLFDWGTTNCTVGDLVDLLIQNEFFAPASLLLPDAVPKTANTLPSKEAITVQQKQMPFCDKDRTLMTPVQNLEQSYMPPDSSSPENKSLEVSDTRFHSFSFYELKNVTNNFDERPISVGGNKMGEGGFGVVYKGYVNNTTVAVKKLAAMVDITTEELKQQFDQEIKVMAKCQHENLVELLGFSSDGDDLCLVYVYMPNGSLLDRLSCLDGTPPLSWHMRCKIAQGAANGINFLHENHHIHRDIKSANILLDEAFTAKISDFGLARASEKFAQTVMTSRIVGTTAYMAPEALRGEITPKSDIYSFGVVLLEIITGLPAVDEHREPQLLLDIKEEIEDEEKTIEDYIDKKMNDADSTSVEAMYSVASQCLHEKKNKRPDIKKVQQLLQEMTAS
Chain of Delta-type opioid receptor (Homo sapiens) (P41143 whole entry): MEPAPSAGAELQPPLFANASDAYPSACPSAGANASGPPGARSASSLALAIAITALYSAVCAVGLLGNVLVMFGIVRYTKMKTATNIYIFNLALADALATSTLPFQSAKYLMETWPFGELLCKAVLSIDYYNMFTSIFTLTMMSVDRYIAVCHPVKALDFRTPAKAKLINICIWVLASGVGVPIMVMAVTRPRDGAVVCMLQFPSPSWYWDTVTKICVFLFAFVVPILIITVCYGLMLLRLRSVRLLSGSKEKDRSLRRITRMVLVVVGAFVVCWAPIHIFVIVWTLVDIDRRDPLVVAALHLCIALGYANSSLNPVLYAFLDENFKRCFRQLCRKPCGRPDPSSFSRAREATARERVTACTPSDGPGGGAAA
Chain of Sigma intracellular receptor 2 (Q5BJF2 whole entry): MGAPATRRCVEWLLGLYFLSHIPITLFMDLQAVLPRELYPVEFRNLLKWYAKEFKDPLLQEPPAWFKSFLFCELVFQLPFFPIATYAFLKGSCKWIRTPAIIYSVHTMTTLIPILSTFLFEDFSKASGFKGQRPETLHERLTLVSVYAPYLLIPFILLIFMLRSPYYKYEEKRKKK
Chain of Serine/threonine-protein kinase Chk1 (Homo sapiens) (O14757 whole entry): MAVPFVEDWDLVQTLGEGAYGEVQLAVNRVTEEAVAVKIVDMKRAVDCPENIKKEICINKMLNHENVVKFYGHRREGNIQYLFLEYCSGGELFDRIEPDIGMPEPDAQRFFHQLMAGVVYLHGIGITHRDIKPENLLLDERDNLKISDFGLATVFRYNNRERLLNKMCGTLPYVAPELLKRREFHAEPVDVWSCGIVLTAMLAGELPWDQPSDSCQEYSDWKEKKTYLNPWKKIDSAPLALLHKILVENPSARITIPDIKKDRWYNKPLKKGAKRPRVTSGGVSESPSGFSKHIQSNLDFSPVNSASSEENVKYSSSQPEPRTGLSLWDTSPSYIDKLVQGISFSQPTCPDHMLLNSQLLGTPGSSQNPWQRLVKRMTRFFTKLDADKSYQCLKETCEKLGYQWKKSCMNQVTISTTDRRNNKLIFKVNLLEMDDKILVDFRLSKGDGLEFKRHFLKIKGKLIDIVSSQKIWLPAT
Chain of RAC-alpha serine/threonine-protein kinase (Homo sapiens) (P31749 whole entry): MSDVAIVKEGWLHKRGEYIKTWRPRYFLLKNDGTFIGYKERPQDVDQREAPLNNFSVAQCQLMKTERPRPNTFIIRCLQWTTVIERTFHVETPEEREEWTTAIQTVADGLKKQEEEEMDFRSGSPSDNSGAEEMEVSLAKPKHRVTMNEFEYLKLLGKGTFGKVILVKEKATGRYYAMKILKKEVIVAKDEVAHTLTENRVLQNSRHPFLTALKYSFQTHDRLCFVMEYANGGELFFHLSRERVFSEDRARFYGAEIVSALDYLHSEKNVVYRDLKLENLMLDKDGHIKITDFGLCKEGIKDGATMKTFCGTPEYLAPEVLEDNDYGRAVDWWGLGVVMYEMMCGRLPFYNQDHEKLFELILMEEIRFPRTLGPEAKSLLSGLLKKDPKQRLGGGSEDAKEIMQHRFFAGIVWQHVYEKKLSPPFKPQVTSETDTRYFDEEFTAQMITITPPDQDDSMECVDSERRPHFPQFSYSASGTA
Chain of Casein kinase II subunit alpha' (Homo sapiens) (P19784 whole entry, looked up): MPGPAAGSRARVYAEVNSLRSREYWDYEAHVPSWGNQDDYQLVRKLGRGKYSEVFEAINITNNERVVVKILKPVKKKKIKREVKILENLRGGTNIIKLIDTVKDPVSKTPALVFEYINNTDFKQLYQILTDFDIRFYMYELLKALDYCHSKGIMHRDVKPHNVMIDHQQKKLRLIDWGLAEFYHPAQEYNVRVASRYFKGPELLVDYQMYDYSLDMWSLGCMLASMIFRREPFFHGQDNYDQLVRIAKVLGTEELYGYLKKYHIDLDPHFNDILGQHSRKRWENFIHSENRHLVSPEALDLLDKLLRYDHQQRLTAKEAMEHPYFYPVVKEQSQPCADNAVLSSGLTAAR

COc1nc2ccc([C@@](O)(c3ccccc3)C3CCN(C(C)=O)CC3)cc2c(Cl)c1Cc1ccc(-n2cccn2)cc1 [JNJ-54119936]
inhibition [1]: 4% | inhibition [2]: 17% | inhibition [3]: 6% | inhibition [4]: 15.2% | inhibition [5]: -5% | inhibition ([6]; Compound concentration 0.3 uM): 1.77% | inhibition ([6]; Compound concentration 1.0 uM): 7.87% | inhibition ([6]; Compound concentration 3.0 uM): 14.8% | inhibition [7]: 2% | inhibition [8]: 33.9% | inhibition [9]: 10% | inhibition ([10]; Compound concentration 0.3 uM): -1.2% | inhibition ([10]; Compound concentration 1.0 uM): 0.61% | inhibition ([10]; Compound concentration 3.0 uM): -3.01% | inhibition [11]: -1% | inhibition [12]: 0.46% | inhibition [13]: 1% | inhibition [14]: 2% | inhibition [15]: 11% | inhibition ([16]; Compound concentration 1.0 uM): 18% | inhibition ([16]; Compound concentration 10.0 uM): 21% | inhibition [17]: 12% | inhibition at 0.3 µM ([18]; compound concentration 0.3 uM): -0.121% (not active) | inhibition at 1 µM ([18]; compound concentration 1 uM): -0.752% (not active) | inhibition at 3 µM ([18]; compound concentration 3 uM): 2.37% (not active) | inhibition [19]: 1% | inhibition [20]: 7% | inhibition [21]: 9% | inhibition [22]: 20.8% | inhibition [23]: -5% | inhibition [24]: 65.8% | inhibition [25]: 2% | inhibition [26]: 13% | inhibition [27]: -2% | inhibition ([28]; Compound concentration 1.0 uM): 21% | inhibition ([28]; Compound concentration 10.0 uM): 44% | inhibition [29]: 10%
